Here are results for three compounds from EP1246919B1, “PROGENITOR CELL PR[…] AND RELATED METHODS AND PRODUCTS” (ImClone Systems Incorporated, priority 1999, dated 2001).

The test system of data set [1] is BALB/c mice. In words: Murine 5-FU chemoprotection model. The class given is in vivo. The following applies: 5-FU 150 mg/kg intraperitoneally. The method, then:
A dose regimen was established to determine whether FRIL protects mice from death resulting from hematopoietic toxicity of […]. […] This finding was consistent with the understanding that stem cells reside in the bone marrow in predominantly a quiescent state. Bone marrow cellularity in these mice was restored after 2 weeks by the recruitment of the dormant progenitors and responsive stem cells that escaped toxicity of 5-FU. Administration of a second dose of 5-FU (also at 150 mg/kg) 3-7 days after the initial dose killed those stem cells and progenitors recruited into S-phase in response to the first treatment of 5-FU (Lerner and Harrison, supra).
In this study described below, the pretreatment dose regimen for Dl-FRIL described above (5 mg/kg x 4 days) was selected based on the requirement of treating animals with cytokines for several days prior to starting chemotherapy and because Dl-FRIL-treated mice easily tolerated doses (5 mg/kg) that were 10- to 100-fold greater than that used for cytokines. […]

For data set [2], the system named is BALB/c mice. The settings on record: single dose of 5-FU (150 mg/kg); Lerner and Harrison; cited from earlier work.
A further data set deals with T1, Dl-FRIL (Lablab purpureus, UniProt Q9ZTA9).
T1 sequence (Q9ZTA9 9-124 limits assumed): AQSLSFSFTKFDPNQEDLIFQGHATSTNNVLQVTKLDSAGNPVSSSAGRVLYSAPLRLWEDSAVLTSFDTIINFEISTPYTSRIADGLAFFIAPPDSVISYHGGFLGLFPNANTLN
T1 sequence (Q9ZTA9 125-272 limits assumed): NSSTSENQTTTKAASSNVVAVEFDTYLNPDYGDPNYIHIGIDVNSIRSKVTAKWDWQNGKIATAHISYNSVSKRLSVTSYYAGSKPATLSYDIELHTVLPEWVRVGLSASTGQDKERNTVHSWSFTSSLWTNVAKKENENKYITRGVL
The settings on record: Mo et al., Glycobiology 9:173-179, 1999; cited from earlier work.

For data set [3], the target named is FLT3 receptor on FLT3-transfected 3T3 cells (murine FLT3 extracellular portion/human Fms chimera or full length human receptor, not told apart at that place). Put plainly: cell-based or functional assay.

As to `O=c1[nH]cc(F)c(=O)[nH]1` [5-FU, 5-fluorouracil], the “deaths after a single dose” value in the data set with BALB/c mice [1] is “No mice died”. Also, in the data set on BALB/c mice [2], the “reduction of bone marrow cellularity” value was > 90%.

On to `OC[C@H]1O[C@H](O[C@H]2O[C@H](CO)[C@@H](O)[C@H](O)[C@H]2O)[C@H](O)[C@@H](O)[C@@H]1O` [α,α-trehalose], for which the “greater potency than mannose” value on Dl-FRIL is reported as 3.6 fold.

As for “Pv-FRIL, mannose-binding lectin isolated from red kidney bean (Phaseolus vulgaris) extract, or purified from PHA-LCM”, the Specific Activity (u/mg) in the Flt3 3T3 assay, Superdex 75 fraction (Pv-FRIL purified to near homogeneity from PHA-LCM) in data set [3] is 244000 u/mg.
